Data set [1] in a line: Cytotoxicity run with the Influenza B test. The class given is cell-based. The method, then: (§1) Methods For Assay Of Cytotoxicity
(§2) In the CPE inhibition test, two wells of uninfected cells treated with each concentration of test Compound are run in parallel with the infected, treated wells. At the time CPE is determined microscopically, the toxicity control cells are also examined microscopically for any changes in cell appearance compared to normal control cells run in the same plate. These changes may be enlargement, granularity, cells with ragged edges, a filmy appearance, rounding, detachment from the surface of the well, or other changes. These changes are given a designation of T (100% toxic), PVH (partially toxic-very heavy-80%), PH (partially toxic-heavy-60%), P (partially toxic-40%), PS (partially toxic-slight-20%), or 0 (no toxicity-0%), conforming to the degree of cytotoxicity seen.
(§3) In the neutral red dye uptake phase of the antiviral test described above, the two toxicity control wells also receive neutral red and the degree of color intensity is determined spectrophotometrically. A neutral red CC50 (NRCC50) is subsequently determined.
(§4) C. ^3H Thymidine Uptake Assay
(§5) Flat bottom 96 well plates are plated with 5X10E3 Vero-34 cells/well and 1X10E4 Hs68 or Wi-38 cells/well respectively and incubated overnight at 37° C. and 5% CO2/air. After incubation, the supernatant medium is removed and replaced with test Compound dilutions in 2% DMEM (150 ul). The cells are then incubated 48 hours in a 5% CO2 incubator at 37° C.
(§6) 50 μl/well of 10 uCi/ml solution of [3H]-methyl thymidine (specific activity of approx. 2Ci/mmol) is added to the culture medium and incubated overnight (18 hours) in a 5% CO2 incubator at 37° C.
(§7) Cells are then collected onto a fiberglass filter (Printed Filtermat A 1450-421 Wallac) with a Tomtec cell harvester. Suspended cells are collected directly onto filter while for adherent cells, the medium is first removed, then the cells washed with PBS and trypsinized for 2-3 minutes (50 μl trypsin/well) before collecting.
(§8) Filters are dried for 1 hour at 37-40° C. and then placed into bags (1450-microbeta #1450-432 Wallac) with 4.5 ml of Betascint and counts obtained with Microbeta 1450 Wallac (protocol 1).
(§9) The percent of cell proliferation is determined by comparison to the control (no test Compound) and thereby establishing 50% inhibitory concentration is established.

The next data set has as its system Influenza A. The experiment in a line: microbe, parasite or virus in culture. Conditions: for IC50: Influenza A virus, read-out: INFLUENZA A IC50. The class given is cell-based.
Another data set has as its system HIVTEKI. The experiment in a line: Anti-HIV activity against HIVTEKI in PBMCs. To be noted: for IC50: Human immunodeficiency virus 1, PBMC, read-out: HIVTEKI (PBMCs) IC50.
Data set [2] in a line: Cytotoxicity run with the Rhinovirus test.
Data set [3] in a line: Cytotoxicity run with the RSV test.
The test system of the next data set is Parainfluenza. The experiment in a line: Antiviral activity against Parainfluenza (CPE inhibition / neutral red). Format: cell-based.
Data set [4] can be described thus: Cytotoxicity run with the Adenovirus test.
Data set [5] is described as follows: Cytotoxicity run with the HSV-1 test.
Data set [6] can be described thus: Cytotoxicity run with the Influenza A test. Format: cell-based. The method, then: as §1, §2, §3, §4, §5, §6, §7, §8, §9
A further data set has as its system Rhinovirus (RV). The experiment in a line: Antiviral activity against Rhinovirus (CPE inhibition / neutral red). Format: cell-based. Conditions: for IC50: Enterovirus, read-out: RV IC50.
Data set [7] is described as follows: Cytotoxicity run with the Parainfluenza test.
For another data set, the system named is HIVROJO. The experiment in a line: Anti-HIV activity against HIVROJO in PBMCs. Format: cell-based. Conditions: for IC50: Human immunodeficiency virus 1, PBMC, read-out: HIVROJO (PBMCs) IC50.
The next data set has as its system Adenovirus. The experiment in a line: Antiviral activity against Adenovirus (CPE inhibition / neutral red). The class given is cell-based.
For a further data set, the system named is HSV-1. The experiment in a line: Antiviral activity against HSV-1 (CPE inhibition / neutral red). Format: cell-based, herpes simplex virus type 1.
A further data set concerns Influenza B. The experiment in a line: microbe, parasite or virus in culture. The class given is cell-based. To be noted: for IC50: Influenza B virus.
Data set [8] can be described thus: Cytotoxicity in PBMCs (anti-HIV tests). Format: cell-based. To be noted: human; PBMCs, HIVROJO.
For data set [9], the system named is Respiratory Syncitial Virus (RSV). The experiment in a line: Antiviral activity against RSV (CPE inhibition / neutral red). Format: cell-based.
In data set [10] the test system is uninfected cells. The experiment in a line: Cytotoxicity run with the Influenza B test. Format: cell-based. As to the method:
as §1, §2, §3, §4, §5, §6, §7, §8, §9

For data set [11], the system named is uninfected cells.
Data set [12] relates to uninfected cells. The experiment in a line: Cytotoxicity run with the Influenza A test. The class given is cell-based. As to the method:
as §1, §2, §3, §4, §5, §6, §7, §8, §9

For data set [13], the system named is uninfected cells. The source holds these as a separate data set.
Data set [14] deals with uninfected cells. This is another data set of the same source.
Data set [15] relates to uninfected cells. The source holds these as a separate data set.
Data set [16] has as its system uninfected cells. This is another data set of the same source.
A further data set has as its system PBMCs. The experiment in a line: Cytotoxicity in PBMCs (anti-HIV tests). Format: cell-based.
A further data set concerns HSV-2. The experiment in a line: Antiviral activity against HSV-2 (CPE inhibition / neutral red). Format: cell-based, herpes simplex virus type 2. Conditions: HSV-2.
Where [17] appears, read: unidentified adenovirus; read-out: ADENOVIRUS IC50.
[18] abbreviates: human respiratory syncytial virus; read-out: RSV IC50.

The text below walks through data of US6534520B2, “Antiviral compounds” (priority 1997, dated 2003).

In general, CC50 refers to the concentration that lowers cell viability or growth by half. A word on the IC50: it is the concentration at which inhibition is half-maximal.

SMILES strings stand for the structures. Converted amounts (≈) assume the structure as drawn. Where two headings read alike, the source gives them in different places. A value given as a limit tells only on which side of the number the result lay.

Take `Cc1cncc2ccc(C(=O)NCc3ccccc3OC(C)C)nc12` [#64, 8-(methyl)-[1,6]Naphthyridine-2-carboxylic acid 2-isopropoxybenzylamine]: the half-maximal cytotoxic concentration (CC50) was found to be 1.8 µg/mL (≈ 5.37 µM) in data set [1]; 16 µg/mL (≈ 47.7 µM) in data set [2]; 0.6 µg/mL (≈ 1.79 µM) in [3]; 1 µg/mL (≈ 2.98 µM) in data set [4]; 3.5 µg/mL (≈ 10.4 µM) in [5]; 2.4 µg/mL (≈ 7.16 µM) in [6]. Besides, the CC50 in [7] is 1 µg/mL (≈ 2.98 µM); in data set [8], 4.3 µg/mL (≈ 12.8 µM). The IC50 was 2.4 µg/mL (≈ 7.16 µM) in the data set with Influenza A; 0.8 µg/mL (≈ 2.39 µM) in the data set with HIVTEKI; 1 µg/mL (≈ 2.98 µM) with Parainfluenza; > 0.08 µg/mL in the data set on Rhinovirus (RV) (Rhinovirus); 0.28 µg/mL (≈ 0.835 µM) in the data set on HIVROJO (HIVROJO, PBMCs); 3 µg/mL (≈ 8.94 µM) in the data set on Adenovirus (setting [17]). Also, the IC50 was 2 µg/mL (≈ 5.96 µM) in the data set on HSV-1 (Human alphaherpesvirus 1; read-out: HSV-1 IC50), 1.8 µg/mL (≈ 5.37 µM) with Influenza B and 0.6 µg/mL (≈ 1.79 µM) in [9] (setting [18]).
For `C[C@@H](NC(=O)c1ccc2cncc(Br)c2n1)c1ccccc1` [#66, 8-Bromo-[1,6]naphthyridine-2-carboxylic acid (1-phenyl-ethyl)-amide], the CC50 is 18 µg/mL (≈ 50.5 µM) in [1]; 3 µg/mL (≈ 8.42 µM) in data set [2]; 5 µg/mL (≈ 14 µM) in data set [3]; 8 µg/mL (≈ 22.5 µM) in data set [4]; 20 µg/mL (≈ 56.1 µM) in data set [5]; 24 µg/mL (≈ 67.4 µM) in [6]. Besides, the CC50 in [7] amounted to 10 µg/mL (≈ 28.1 µM); in data set [8], 27.3 µg/mL (≈ 76.6 µM). For the same molecule, the IC50 in the data set with Influenza A was determined as 56 µg/mL (≈ 157 µM); with HIVTEKI, 2.2 µg/mL (≈ 6.18 µM); in the data set on Parainfluenza it was 83 µg/mL (≈ 233 µM); with Rhinovirus (RV) it was 0.3 µg/mL (≈ 0.842 µM); with HIVROJO, 1.4 µg/mL (≈ 3.93 µM); with Adenovirus (unidentified adenovirus, read-out: ADENOVIRUS IC50), 9 µg/mL (≈ 25.3 µM). Also, the IC50 was determined as 1 µg/mL (≈ 2.81 µM) in the data set on HSV-1 (Human alphaherpesvirus 1, read-out: HSV-1 IC50); 18 µg/mL (≈ 50.5 µM) in the data set on Influenza B; 4 µg/mL (≈ 11.2 µM) in [9] (human respiratory syncytial virus, read-out: RSV IC50).
In the case of `C=Cc1cncc2ccc(C(=O)NCc3ccccc3OC(C)C)nc12` [#63, 8-(vinyl)-[1,6]Naphthyridine-2-carboxylic acid 2-isopropoxybenzylamine], the half-maximal cytotoxic concentration (CC50) in data set [1] turned out to be 2.4 µg/mL (≈ 6.91 µM); in data set [2], 9 µg/mL (≈ 25.9 µM); in data set [3], 5 µg/mL (≈ 14.4 µM); in data set [4], 7 µg/mL (≈ 20.1 µM); in data set [6], 5.6 µg/mL (≈ 16.1 µM); in [7], 8 µg/mL (≈ 23 µM). The molecule also came in with a CC50 in data set [8] of 7 µg/mL (≈ 20.1 µM). Also, the concentration for half-maximal inhibition (IC50) in the data set with Influenza A turned out to be 5.6 µg/mL (≈ 16.1 µM); with HIVTEKI it was 4.9 µg/mL (≈ 14.1 µM); in the data set with Parainfluenza, 10 µg/mL (≈ 28.8 µM); in the data set with Rhinovirus (RV) (Rhinovirus), 2 µg/mL (≈ 5.76 µM); in the data set on HIVROJO (HIVROJO, PBMCs) it was 0.7 µg/mL (≈ 2.01 µM); in the data set with Adenovirus (setting [17]), 9 µg/mL (≈ 25.9 µM). Besides, the half-maximal inhibitory concentration (IC50) was determined as 5.2 µg/mL (≈ 15 µM) with Influenza B and 12 µg/mL (≈ 34.5 µM) in data set [9] (setting [18]).
As to `CCCOc1ccccc1CNC(=O)c1ccc2cnccc2n1` [#26, N-(2-propoxybenzyl)-2-[1,6]naphthyridine-2-carboxamide], the INFLUENZA B CC50 with uninfected cells [10] came to 5.6 µg/mL. In the data set on Influenza A, the “INFLUENZA A IC50” value came to 5.6 µg/mL. Besides, the “HIVTEKI (PBMCs) IC50” value in the data set with HIVTEKI (HIVTEKI, PBMCs) amounted to 0.3 µg/mL. Further, in the data set with uninfected cells [11], the “RSV CC50” value was found to be 3 µg/mL. Moreover, in the data set on Parainfluenza (Parainfluenza), the PARAINFLUENZA IC50 worked out at 4 µg/mL. Further, the “INFLUENZA A CC50” value with uninfected cells [12] is 5.6 µg/mL. Further, the “HSV-2 CC50” value in the data set on uninfected cells [13] was 1.9 µg/mL. The RV CC50 with uninfected cells [14] was 4 µg/mL. In the data set on Rhinovirus (RV) (Rhinovirus), the RV IC50 is < 0.01 µg/mL. Also, the “HSV-1 CC50” value in the data set on uninfected cells [15] came to 3.2 µg/mL. The “HIVROJO (PBMCs) IC50” value in the data set on HIVROJO (HIVROJO, PBMCs) came to 4.1 µg/mL. For the same molecule, in the data set on Adenovirus (Adenovirus), the ADENOVIRUS IC50 worked out at 4 µg/mL. In addition, the “HSV-1 IC50” value with HSV-1 (HSV-1) was determined as 0.36 µg/mL. In addition, the INFLUENZA B IC50 in the data set on Influenza B (Influenza B) turned out to be 3.2 µg/mL. This molecule had a PARAINFLUENZA CC50 in the data set on uninfected cells [16] of 2 µg/mL. Also, the “HIVROJO (PBMCs) CC50” value with PBMCs is 6.0 µg/mL. Moreover, the “HSV-2 IC50” value in the data set with HSV-2 came to 0.19 µg/mL. For the same molecule, the “RSV IC50” value in [9] (RSV) is 4 µg/mL.
